We go through 21 compounds from patent publication US7294629B2, “Quinazoline derivatives” (Mitsubishi Pharma Corporation, priority 2001, dated 2007).

Experiment [1] deals with T1, EGF receptor partially purified by A431 cell line (Homo sapiens, UniProt P00533).
T1 construct: A431 cell membrane fraction, which was used for the assay as an enzyme source of partially purified EGF receptor; endogenous in cells; host or cells: A431 human epidermoid cancer cells (membrane fraction, 100,000 G pellet)
The experiment is described as follows: EGFR tyrosine kinase inhibitory action (A431 cell membrane fraction, 32P-ATP, Angiotensin II substrate). In kind it is biochemical. Particulars: EGF-stimulated, 10 μM ATP, in ice for 30 min. The protocol: Specific method was as follows.
A431 cells were cultured in Dulbecco's Modified Eagle Medium (DMEM) containing 10% of fetal calf serum (FBS) at 37° C. under 5% carbon dioxide gas, and homogenized in a solution containing 10 mM N-2-hydroxyethylpiperazino-N′-2-ethanesulfonic acid (Hepes) buffer (pH 7.4), 0.25 M sucrose and 0.1 mM EDTA, and separated by centrifugation at 3000 G for 5 min. The supernatant was separated by centrifugation at 100,000 G for 30 min to separate A431 cell membrane fraction, which was used for the assay as an enzyme source of partially purified EGF receptor.
The reaction was carried out in ice for 30 min and 6 μL of 10 mg/mL bovine serum albumin and 25 μL of 20% trichloroacetic acid were added to stop the reaction. The reaction mixture was left in ice as it was for 30 min.
The mixture was centrifuged at 5000 G for 2 min and the supernatant was sampled by 40 μL and adsorbed on P81 phosphocellulose paper. […] This rinsing was repeated 4 times. The paper was taken out, the ^32P count was measured on a liquid scintillation counter and this value was taken as A.
Simultaneously, a reaction without the test substance and a reaction without the test substance and EGF were also measured and the counts thereof were taken as B and C, respectively.
The tyrosine kinase inhibitory rate can be determined from the following formula based on these values. Percent Inhibition (%)=100−{(A−C)/(B−C)}×100

The target in experiment [2] is T2, mutated c-erbB2 (HER2) constitutively activated, in transformed NIH3T3 cells (A4 cell) (Homo sapiens, UniProt P04626, V659E).
T2 construct: expressed in transfected cells; host or cells: NIH3T3 mouse fibroblast cell line (A4 cell)
T2 sequence (P04626 23-1255 V659E): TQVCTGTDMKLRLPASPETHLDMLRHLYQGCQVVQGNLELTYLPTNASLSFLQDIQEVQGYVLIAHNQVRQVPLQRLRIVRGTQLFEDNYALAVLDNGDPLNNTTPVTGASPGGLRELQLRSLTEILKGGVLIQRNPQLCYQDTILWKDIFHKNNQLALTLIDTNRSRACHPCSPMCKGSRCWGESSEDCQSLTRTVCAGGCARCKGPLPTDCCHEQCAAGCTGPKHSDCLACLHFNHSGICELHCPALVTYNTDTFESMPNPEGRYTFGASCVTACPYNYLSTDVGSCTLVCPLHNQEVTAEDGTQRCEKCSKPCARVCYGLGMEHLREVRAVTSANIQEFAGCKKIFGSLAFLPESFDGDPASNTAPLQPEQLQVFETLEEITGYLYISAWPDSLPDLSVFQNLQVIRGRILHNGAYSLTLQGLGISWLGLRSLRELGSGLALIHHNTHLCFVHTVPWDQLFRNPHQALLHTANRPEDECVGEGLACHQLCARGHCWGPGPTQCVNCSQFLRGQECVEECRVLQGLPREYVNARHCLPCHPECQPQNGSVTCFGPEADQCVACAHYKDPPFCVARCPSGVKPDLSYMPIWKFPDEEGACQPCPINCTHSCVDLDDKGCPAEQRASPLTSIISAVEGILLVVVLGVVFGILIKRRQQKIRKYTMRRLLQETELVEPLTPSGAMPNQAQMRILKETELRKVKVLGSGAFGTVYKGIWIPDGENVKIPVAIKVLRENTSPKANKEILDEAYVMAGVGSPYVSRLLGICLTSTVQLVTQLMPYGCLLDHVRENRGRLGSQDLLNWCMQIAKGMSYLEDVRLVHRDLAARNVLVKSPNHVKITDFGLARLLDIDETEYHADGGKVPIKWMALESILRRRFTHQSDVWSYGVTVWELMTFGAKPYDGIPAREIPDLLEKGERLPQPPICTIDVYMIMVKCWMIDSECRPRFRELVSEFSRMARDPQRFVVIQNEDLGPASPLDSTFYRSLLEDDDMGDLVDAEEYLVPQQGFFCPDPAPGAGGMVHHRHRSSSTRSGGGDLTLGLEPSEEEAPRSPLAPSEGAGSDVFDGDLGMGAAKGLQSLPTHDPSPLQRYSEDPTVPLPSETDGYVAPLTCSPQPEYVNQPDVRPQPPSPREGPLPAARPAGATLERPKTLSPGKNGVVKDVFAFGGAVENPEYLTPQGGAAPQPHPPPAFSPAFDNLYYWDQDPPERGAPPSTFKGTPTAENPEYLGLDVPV
The experiment can be described thus: HER2 tyrosine kinase inhibitory action (phosphotyrosine Western blotting in A4 cells). Particulars: 2 hrs, signal without compound = 100%; for remaining activity at 0.1 µM: read-out: % of control at 0.1 μM (phosphorylation signal); for remaining activity at 1 µM: read-out: % of control at 1 μM (phosphorylation signal). It is filed as cell-based. The procedure:
(2) HER2 Tyrosine Kinase Inhibitory Action (Method)
As the cells, NIH3T3 mouse fibroblast cell line (provided by Institute of Development, Aging and Cancer, Tohoku University Cell Resource Center for Biomedical Research) transformed with mutated c-erbB2 constitutively activated by substituting valine at position 659 for glutamic acid was used. In the following, the cell is referred to as A4 cell. This cell line was cultured in DMEM/F12 mixed medium (hereinafter a complete medium) supplemented with 10% FBS in a plastic dish at 37° C., 5% CO2, 95% air.
The A4 cells suspended in a complete medium were seeded in a 12-well plate at 3×10^5/well, and confluent cells were cultured with the compound at 37° C. for 2 hrs. The cells were washed once with PBS, re-suspended in a lysis buffer (60 mM Tris (pH 6.8), 2% SDS, 10% glycerol, 5% beta-mercaptoethanol, 0.001% bromophenol blue), treated by ultrasonication and applied to Western blotting as a whole cell lysate.
The whole cell lysate (protein amount 25 μg) was applied to 7.5% SDS-polyacrylamide electrophoresis and transferred to PVDF membrane. The membrane was blocked and incubated with antiphosphotyrosine mouse monoclonal antibody in Tris buffer containing 0.1% Tween 20 and then treated with HRP-labeled antimouse second antibody. The membrane was developed with a chemiluminescent reagent. The chemiluminescence was taken with a lumino CCD camera and recorded electronically.

The subject of another experiment is A431 tumor. The experiment is described as follows: In vivo antitumor effect on A431 tumor in nude mice. The arrangement: species or system Balb/c female nude mice. The procedure: (4) In vivo Antitumor Effect
Human epidermoid cancer cell A431 (5×10^6/100 μl) suspended in PBS was subcutaneously implanted on the back of Balb/c female nude mice (Balb/cAJcl-nu mouse, Clea Japan, Inc., 5-week-old when purchased) and when the average volume of the implanted tumor reached approximately about 100 mm^3 in about 7 days, the mice were allocated (4 per group) to make the average tumor volume the same for each group. The tumor volume was obtained by measuring the long diameter and the short diameter with a caliper and according to: [(short diameter)^2×long diameter/2]=tumor volume [mm^3]. A pharmaceutical agent was forcibly administered orally once a day for 14 consecutive days from the day of the allocation, and the drug was not given to the mice of the control group. The relative tumor growth rate, with the tumor volume of the day of start of the administration as 1, was calculated for the control group and the treatment group. Antitumor effect (%) of control=(relative tumor growth rate of treatment group on the last day −1)/(relative tumor growth rate of control group on the last day −1)×100

T1 sequence (P00533 25-1210): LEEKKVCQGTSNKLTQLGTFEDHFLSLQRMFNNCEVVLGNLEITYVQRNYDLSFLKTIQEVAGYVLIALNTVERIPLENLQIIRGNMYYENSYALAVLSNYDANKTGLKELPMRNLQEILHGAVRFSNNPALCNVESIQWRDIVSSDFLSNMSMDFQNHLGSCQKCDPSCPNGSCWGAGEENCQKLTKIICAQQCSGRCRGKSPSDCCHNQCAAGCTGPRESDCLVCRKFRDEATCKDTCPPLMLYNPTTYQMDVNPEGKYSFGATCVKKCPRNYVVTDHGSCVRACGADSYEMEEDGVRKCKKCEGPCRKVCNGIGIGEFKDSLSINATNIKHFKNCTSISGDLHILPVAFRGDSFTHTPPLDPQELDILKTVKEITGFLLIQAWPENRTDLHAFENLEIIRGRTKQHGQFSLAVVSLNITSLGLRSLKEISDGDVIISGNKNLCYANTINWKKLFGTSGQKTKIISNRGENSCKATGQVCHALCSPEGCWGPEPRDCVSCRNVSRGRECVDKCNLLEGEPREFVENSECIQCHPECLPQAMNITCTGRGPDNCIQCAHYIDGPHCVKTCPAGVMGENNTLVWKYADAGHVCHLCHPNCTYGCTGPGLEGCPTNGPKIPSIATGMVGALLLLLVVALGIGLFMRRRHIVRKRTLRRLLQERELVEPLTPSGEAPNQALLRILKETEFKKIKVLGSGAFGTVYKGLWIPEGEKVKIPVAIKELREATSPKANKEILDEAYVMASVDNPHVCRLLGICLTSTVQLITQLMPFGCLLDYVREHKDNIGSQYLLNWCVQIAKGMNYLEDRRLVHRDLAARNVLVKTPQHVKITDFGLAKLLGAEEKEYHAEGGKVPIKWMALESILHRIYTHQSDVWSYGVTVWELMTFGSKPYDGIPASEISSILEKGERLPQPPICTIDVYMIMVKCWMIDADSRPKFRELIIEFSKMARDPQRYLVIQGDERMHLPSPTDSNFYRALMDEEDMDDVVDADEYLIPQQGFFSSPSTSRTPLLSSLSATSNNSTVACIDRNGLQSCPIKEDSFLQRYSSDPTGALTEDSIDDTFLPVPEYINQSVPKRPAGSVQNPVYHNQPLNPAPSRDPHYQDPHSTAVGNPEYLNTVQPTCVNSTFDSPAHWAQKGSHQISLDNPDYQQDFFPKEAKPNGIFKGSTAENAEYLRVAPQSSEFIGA

The term IC50 denotes the midpoint of a concentration-inhibition curve. Lower therefore signals inhibition by little substance. Compound `C=CC(=O)Nc1cc2c(Nc3ccc(F)c(Cl)c3)ncnc2cc1C#CC(C)(C)N1CCNCC1` [1ap] came in with an IC50 in experiment [1] of 2.4 nM. Further, in experiment [2], the remaining activity at 0.1 µM stood at 74% and the remaining activity at 1 µM was 24%.
For the compound `C=CC(=O)Nc1cc2c(Nc3ccc(F)c(Cl)c3)ncnc2cc1C#CC(C)(C)N1CCN(C)CC1` [compound 1a.2TsOH, 1a.ditosylate], the “% of control (antitumor effect)” value with A431 tumor (1 mg/kg orally once a day for 14 days) amounted to 41.0%. The “relative tumor growth rate” value with A431 tumor (1 mg/kg orally once a day for 14 days, volume at start = 1) turned out to be 2.95. Also, the “antitumor effect (in words)” value in the experiment with A431 tumor (A431 tumor, oral, 14 days) is “dose-dependent antitumor effect”.
With `C=CC(=O)Nc1cc2c(Nc3ccc(F)c(Cl)c3)ncnc2cc1C#CC(C)(C)N1CCOCC1` [1b], in experiment [1], 1.3 nM corresponded to half-maximal inhibition (IC50).
On to `C=CC(=O)Nc1cc2c(Nc3ccc(F)c(Cl)c3)ncnc2cc1C#CCCN1CCN(C)CC1` [1ac], for which, in experiment [1], the half-inhibitory concentration (IC50) is below 1 nM. In addition, in experiment [2], the remaining activity at 0.1 µM came out at 9% and the remaining activity at 1 µM was found to be 3%.
Compound `CCOc1cc2ncnc(Nc3ccc(F)c(Cl)c3)c2cc1C#CC(C)(C)N1CCOCC1` [1bk] had an IC50 in experiment [1] of 2.1 nM.
Still for that read-out and setting: for `COc1cc2c(Nc3ccc(F)c(Cl)c3)ncnc2cc1C#CC(C)(C)N1CCN(C)CC1` [1bi] the value was 1 nM; for `COc1cc2ncnc(Nc3ccc(F)c(Cl)c3)c2cc1C#CC(C)(C)N1CCNCC1` [1bc], 1.6 nM.
As for `C#Cc1cccc(Nc2ncnc3cc(OCC)c(C#CC(C)(C)N4CCN(C)CC4)cc23)c1` [1bam], the IC50 in experiment [1] worked out at 3.3 nM.
Consider `C=CC(=O)Nc1cc2c(Nc3ccc(F)c(Cl)c3)ncnc2cc1C#CC(C)(C)N1CCC(N(C)C)CC1` [1aa], for which the 50% inhibitory concentration (IC50) in experiment [1] came to 1.7 nM.
On the same count and under the same terms, with `CCOc1cc2ncnc(Nc3ccc(F)c(Cl)c3)c2cc1C#CC(C)(C)N(CC)CC` [1br] the figure was 5.7 nM; with `CCOc1cc2ncnc(Nc3ccc(F)c(Cl)c3)c2cc1C#CC(C)(C)N1CCCN(C)CC1` [1bw], 2.8 nM.
With `C=CC(=O)Nc1cc2c(Nc3ccc(F)c(Cl)c3)ncnc2cc1C#CC(C)(C)N(C)C1CCN(C)CC1` [1ab], the IC50 in experiment [1] came out at 2.1 nM.
The same measure, in the same setting: for `CCOc1cc2ncnc(Nc3ccc(F)c(Cl)c3)c2cc1C#CC(C)(C)N1CCN(C(C)=O)CC1` [1baa] the value was 2.8 nM.
Same read-out and setting: with `CCOc1cc2ncnc(Nc3ccc(F)c(Cl)c3)c2cc1C#CC(C)(C)N1CCN(CC#N)CC1` [1bs] the figure was 1.1 nM.
In turn, `CC(C)(C#Cc1cc2ncnc(Nc3ccc(F)c(Cl)c3)c2cc1NS(C)(=O)=O)N1CCCC1` [1cx] came in with a 50% inhibitory concentration (IC50) in experiment [1] of 2.8 nM.
Turning to `CCOCCN(CCOCC)C(C)(C)C#Cc1cc2c(Nc3ccc(F)c(Cl)c3)ncnc2cc1OCC` [1bu], 3.2 nM corresponded to half-maximal inhibition in experiment [1] (IC50).
In turn, `CCOc1cc2ncnc(Nc3ccc(F)c(Cl)c3)c2cc1C#CC1(N2CCN(C)CC2)CCCCC1` [1bt] had an IC50 in experiment [1] of 5 nM.
Regarding `COc1cc2c(Nc3ccc(F)c(Cl)c3)ncnc2cc1C#CC(C)(C)N1CCN(CC#N)CC1` [1bj], the IC50 in experiment [1] is 2.9 nM.
Consider `C#Cc1cccc(Nc2ncnc3cc(OCC)c(C#CC(C)(C)N4CCOCC4)cc23)c1` [1baj], for which the half-maximal inhibitory concentration (IC50) in experiment [1] turned out to be 3.3 nM.
Still for that read-out and setting: for `COCCN1CCN(C(C)(C)C#Cc2cc3ncnc(Nc4ccc(F)c(Cl)c4)c3cc2NS(C)(=O)=O)CC1` [1cv] the value was 1.8 nM; for `COc1cc2ncnc(Nc3ccc(F)c(Cl)c3)c2cc1/C=C/C(C)(C)N1CCN(C)CC1` [1bf], 0.82 nM.
